Calls of active or inactive are those of the source. No rule for the calls is given here.
Tested on: L. donovani-infected THP-1 macrophages, intracellular amastigote imaging
Assay: intracellular L. donovani amastigote inhibition, imaging, THP-1 host macrophages, host toxicity (AID 1159564)
[1] = measured here: THP-1 host cell toxicity
[2] = measured here: amastigotes per macrophage

Compound	IC50	IC50 [1]	IC50 [2]
O=C1CN(Cc2ccco2)C2CS(=O)(=O)CC2N1c1ccc(Cl)cc1 (stereo unspecified)	> 50 µM (inactive)	> 50 µM	> 50 µM
O=C(c1ccccc1)N1CCC(C(=O)N2CCC(Oc3ccccc3Cl)CC2)CC1	> 50 µM (inactive)	> 50 µM	32 µM
CCC(CC)C(=O)Nc1cccc(C(=O)Nc2nnc(C3CCCCC3)s2)c1	> 50 µM (inactive)	> 50 µM	> 50 µM
CC(=O)Nc1cccc(Nc2ncnc3nc[nH]c23)c1	> 50 µM (inactive)	10 µM	40 µM
O=C(NC(CO)c1ccc(F)cc1)c1ccc(-c2c[nH]c3ncccc23)s1 (stereo unspecified)	25 µM	10 µM	20 µM
COc1ccc2ncc(=O)n(CCN3CCC(NCc4ccc(-c5cccs5)cc4)CC3)c2n1	3.2 µM	10 µM	1.3 µM
Cc1ccc(S(C)(=O)=O)cc1Nc1nccc(-c2sc(N)nc2-c2ccccc2)n1	5 µM	20 µM	2.5 µM
O=C(Nc1cccc(S(=O)(=O)Nc2ccc(Br)cc2)c1)c1ccc([N+](=O)[O-])s1	1 µM	10 µM	0.79 µM
O=c1[nH]c(C=Cc2cccc(OCCOc3ccccc3)c2)nc(O)c1[N+](=O)[O-]	> 50 µM (inactive)	> 50 µM	> 50 µM
COc1ncc(-c2ccc3nccc(-c4ccncc4)c3c2)cc1NS(C)(=O)=O	2.5 µM	3.2 µM	0.63 µM
CC(=O)Nc1ccc(-c2csc(NC(=O)c3ccc([N+](=O)[O-])s3)n2)cc1	1 µM	13 µM	0.79 µM
O=c1oc2ccccc2n1C1CCN(Cc2ccccc2-c2cccnc2)CC1	> 50 µM (inactive)	13 µM	6.3 µM
Cc1ccc(NC(=O)c2ccnc(N3CCCC3)c2)cc1-c1cc(C(N)=O)ccc1C	40 µM	32 µM	25 µM
NC(=O)c1ncccc1Nc1nc(NC2CCC(O)CC2)ncc1Br (stereo unspecified)	1.3 µM	0.4 µM	0.63 µM
Cc1cc(NC(=O)c2ccc([N+](=O)[O-])s2)ccc1Br	2.5 µM	16 µM	1.6 µM
O=c1[nH]c(NCCCNCc2cc(Br)cc(Br)c2)nc2ccsc12	5 µM	16 µM	2.5 µM
COc1ccc2ncc(Cl)c(CCN3CC[C@H](NCc4cc5c(cn4)OCS5)[C@@H](O)C3)c2n1	1 µM	6.3 µM	0.5 µM
Cc1c(C(=O)NCCCCn2ccnc2)oc2c(C)cccc12	> 50 µM (inactive)	> 50 µM	> 50 µM
COc1ccccc1C(=O)Nc1nnc(-c2ccc3c(c2)OCO3)s1	1 µM	16 µM	0.63 µM
COc1ccc(-c2csc(NC(=O)c3ccc([N+](=O)[O-])s3)n2)cc1OC	1.3 µM	32 µM	1.3 µM
C=CC[C@@H]1CC=C[C@@H](C)N1C(=O)CCc1nnc(-c2ccc3c(c2)OCO3)o1	7.9 µM	13 µM	3.2 µM
O=C(COc1ncnc2cc([N+](=O)[O-])ccc12)NC(=O)NC1CCCCC1	> 50 µM (inactive)	> 50 µM	> 50 µM
Oc1c(-c2n[nH]c(CCc3ccccc3)n2)ncc2cccnc12	4 µM	20 µM	3.2 µM

Compound	IC50	IC50 [1]	IC50 [2]
O=C(NCc1nnc2n1CCCCC2)c1ccc(-c2ccc(F)cc2)o1	> 50 µM (inactive)	> 50 µM	> 50 µM
CCOc1ccc(CC(=O)N2c3ccccc3CC2C(=O)NC)cc1 (stereo unspecified)	> 50 µM (inactive)	> 50 µM	> 50 µM
CNC(=O)C1Cc2ccccc2N1C(=O)COc1cccc(OC)c1 (stereo unspecified)	> 50 µM (inactive)	> 50 µM	> 50 µM
CS(=O)(=O)c1cccc(CNC(=O)c2cncc(N3CCN(c4ccc(F)cc4)CC3)c2)c1	> 50 µM (inactive)	> 50 µM	> 50 µM
COc1cccc(CN(C)Cc2nc(N)c3c(C)c(C)sc3n2)c1	5 µM	32 µM	3.2 µM
CC(C)c1cc(Nc2cc(Cc3ccccc3)nc(NC3CCC(O)CC3)n2)n[nH]1 (stereo unspecified)	0.063 µM	0.02 µM	0.04 µM
O=C(Nc1nc(-c2ccc(F)cc2)cs1)c1ccc([N+](=O)[O-])s1	1.3 µM	7.9 µM	1 µM
COc1ccc(C(C)N(C)c2ncc3c(N)nc(N)nc3n2)cc1F (stereo unspecified)	16 µM	> 50 µM	13 µM
Cc1cc(Br)sc1CNCCCNc1cc(=O)c2ccccc2[nH]1	25 µM	20 µM	20 µM
Cc1cccc(Nc2nc(-c3ccccn3)cs2)n1	3.2 µM	> 50 µM	2 µM
CNS(=O)(=O)c1ccccc1Nc1nc(Nc2ccnn2C)ncc1Cl	0.63 µM	0.32 µM	0.4 µM
O=C(NCCc1ccccc1Cl)c1cccn1-c1cccnc1	> 50 µM (inactive)	> 50 µM	> 50 µM
CC(C)(C)C(Cn1ccnc1)NC(=O)c1ccc2nc(C3CC3)oc2c1 (stereo unspecified)	> 50 µM (inactive)	16 µM	> 50 µM
CCCCNc1nccc(-c2c(-c3ccc(F)cc3)nn3c(N4CCOCC4)cccc23)n1	6.3 µM	13 µM	> 50 µM
Cc1ccccc1NS(=O)(=O)c1ccc2[nH]cc(C(=O)NC3CCCC3)c(=O)c2c1	> 50 µM (inactive)	32 µM	40 µM
O=C1COC(c2ccccc2)(c2ccccc2)CN1C1CCN(Cc2ccc(-n3ccnc3)cc2)CC1	16 µM	16 µM	13 µM
CC(C)c1nn(-c2nc(N)nc(-c3ccccn3)n2)c(N)c1C1CCCCC1	1 µM	5 µM	0.79 µM
COc1ccc(-c2ccc3nnc(-c4ccc(O)c(OC)c4)n3c2)cn1	> 50 µM (inactive)	> 50 µM	> 50 µM
COc1ccccc1-c1c(C)[nH]c2nc(N)nc(C)c12	25 µM	> 50 µM	16 µM
C[C@@H](Oc1cc(-n2cnc3ccc(CC(O)CO)cc32)sc1C(N)=O)c1ccccc1Cl (stereo partly specified)	40 µM	40 µM	32 µM
CCCCn1c(=O)c2c(N)onc2n(CCCC)c1=O	> 50 µM (inactive)	> 50 µM	32 µM
O=C(NCCc1ccccn1)C(c1cn[nH]c1)N1CCN(c2ccc(Cl)c(Cl)c2)CC1 (stereo unspecified)	> 50 µM (inactive)	> 50 µM	20 µM
Cc1nc(N2CCC(C(=O)N3CCC(O)(c4cccnc4)CC3)CC2)nc2ccc(C(C)C)cc12	50 µM	25 µM	10 µM

Compound	IC50	IC50 [1]	IC50 [2]
COCCn1c(-c2ccccc2)cnc1NCc1ccccc1OC	6.3 µM	50 µM	6.3 µM
COc1ccc(Cl)cc1CC(=O)Nc1n[nH]c(-c2ccccn2)n1	6.3 µM	> 50 µM	5 µM
Cc1cc(C)c(C#N)c(SCC(=O)c2ccc3c(c2)OCO3)n1	> 50 µM (inactive)	> 50 µM	> 50 µM
Cc1cc(-c2cccc3ccccc23)nc2nc(N)nc(N)c12	5 µM	50 µM	1 µM
COc1ccc(NS(=O)(=O)c2cccc(NC(=O)c3cc(F)cc(F)c3)c2)cc1	> 50 µM (inactive)	> 50 µM	20 µM
Cc1cc(Br)cc(C(=O)c2c(C(C)C)c(=O)[nH]c(=O)n2Cc2ccnc(N)c2)c1	32 µM	40 µM	20 µM
O=C1NCc2cccc(Nc3nc(NC4CCC(O)CC4)ncc3Br)c21 (stereo unspecified)	0.16 µM	0.1 µM	0.13 µM
NC(=O)c1ncc(N[C@@H]2CCCNC2)nc1Nc1cccc(Cl)c1	0.79 µM	2 µM	0.5 µM
O=C(Nc1cccc(Cl)c1)Nc1ccc([N+](=O)[O-])cc1Cl	3.2 µM	25 µM	2 µM
Fc1ccccc1N1C[C@H]2CCN(c3cccnc3)C[C@H]2C1	> 50 µM (inactive)	> 50 µM	
O=C(NNC(=O)c1ccccn1)c1ccc(-c2ccccc2)cc1	6.3 µM	3.2 µM	3.2 µM
COc1ccnc2[nH]cc(-c3cc(C(=O)N[C@H](CO)c4ccccc4)co3)c12	7.9 µM	0.79 µM	2 µM
NC(=O)c1ccc(-c2cccc(OCCN3CCN(C4CCCCC4)CC3)c2)cc1	50 µM	32 µM	10 µM
Cn1ccnc1CN1CCc2[nH]cnc2C1c1ccccc1OCc1ccccc1 (stereo unspecified)	> 50 µM (inactive)	> 50 µM	> 50 µM
CCCCCNC(=O)c1c[nH]c2ccc(S(=O)(=O)N(C)c3ccc(OCC)cc3)cc2c1=O	> 50 µM (inactive)	> 50 µM	> 50 µM
Cc1cc(Oc2cc(Cl)c(Cl)cc2Cl)n2ncnc2n1	16 µM	10 µM	13 µM
COc1cc(OC)cc(C(=O)N[C@@H](CC(C)C)C(=O)NC2(C#N)CC2)c1	> 50 µM (inactive)	> 50 µM	> 50 µM
O=C(c1cc2cc(Cl)ccc2[nH]1)N1CCCCC1c1cccnc1 (stereo unspecified)	32 µM	16 µM	10 µM
Cc1nc(C(=O)Nc2ccc3c(c2)OCO3)nn1-c1ccc(F)cc1	7.9 µM	> 50 µM	2.5 µM
CCOc1ccc(CN(C)Cc2nc(N)nc(Nc3ccc(C)cc3)n2)cc1	4 µM	40 µM	3.2 µM
CN(C)CCOc1ccc(N2CCN(S(=O)(=O)c3ccc(Cl)cc3)CC2)cc1	32 µM	> 50 µM	32 µM
CC(C)c1cc(C(=O)N2CCCC(c3cc4ncccc4[nH]3)C2)on1 (stereo unspecified)	> 50 µM (inactive)	> 50 µM	> 50 µM
Cc1cc2cc(CNc3ccc4c(c3)OCO4)c(=O)n(CCO)c2cc1C	0.5 µM	40 µM	0.25 µM

Reference: PubChem BioAssay AID1159564 (GlaxoSmithKline (GSK), 2015)
